Residues, ends and D or L forms follow the SMILES beside them.
System: avian chorioallantoic membrane (CAM)
Assay type: in vivo, Leghorn fertilized eggs
Conditions: for inhibition of vessel length: peptide 0.5 and 5 nmol/CAM, 48 h after treatment, vs vehicle control
Method: CGEN-G6 [SEQ ID NO: 6], CGEN-F9 [SEQ ID NO: 7], CGEN-F12 [SEQ ID NO: 8], CGEN-C6 [SEQ ID NO: 9], CGEN-A11 [SEQ ID NO: 10], and CGEN-G2 [SEQ ID NO: 11], were analyzed for their ability to affect angiogenesis using the in ovo avian chorioallantoic membrane (CAM) model of angiogenesis, which is widely used as a model to examine compounds affecting angiogenesis (Richardson and Singh 2003, Curr Drug Targets Cardiovasc Haematol Disord., 3(2):155-85). Two positive controls were used: fumagillin as a general anti-angiogenic compound, and Tie2 neutralizing antibody as anti-angiogenic inhibitor of the Ang/Tie2 pathway. Leghorn fertilized eggs were incubated for 4 days at 37° C., when a window was opened on the egg's shell, exposing the CAM. Two different doses of peptides (0.5 and 5 nmol/CAM), Tie-2 neutralizing antibody (R&D Systems, Cat#AF313, 10 μg/ml; 0.4 μg/CAM) or fumagillin (Tocris Bioscience, Cat #1768; 5 μg/CAM) were applied in a 40 μl volume inside an area of 1 cm^2 (restricted by a plastic ring) of the CAM on day 9 of embryo development. The appropriate vehicle controls were also tested. Forty-eight hours after treatment and subsequent incubation at 37° C., CAMs were fixed in situ, excised from the eggs, placed on slides and left to air-dry. Pictures were taken through a stereoscope equipped with a digital camera and the total length of the vessels was measured using image analysis software (NIH Image). For each group a total of 17-24 eggs from three different experiments were used. Data are presented as means±SEM and expressed as % of vehicle control. Statistical analysis (ANOVA followed by Dunnett's post-hoc test) was performed using Graph Pad.
FIG. 6 depict results obtained on vessel length with peptides CGEN-G6 [SEQ ID NO: 6], CGEN-F9 [SEQ ID NO: 7], CGEN-F12 [SEQ ID NO: 8], CGEN-C6 [SEQ ID NO: 9], CGEN-A11 [SEQ ID NO: 10], and CGEN-G2 [SEQ ID NO: 11], compared to Tie2 neutralizing antibody (Ab) and the anti-angiogenic compound fumagillin. Neutralizing Tie2 Ab blocked vessel length by 36%, while the angiogenesis inhibitor fumagillin blocked vessel length by 32%.

| Compound | inhibition of vessel length | inhibition of vessel length, rank among peptides (5 nmole) |
| --- | --- | --- |
| CSCC[C@H](NC(=O)[C@H](CC(C)C)NC(=O)[C@H](CC(=O)O)NC(C)=O)C(=O)N[C@@H](CCC(=O)O)C(=O)N[C@H](C(=O)N[C@H](C(=O)N[C@@H](CC(N)=O)C(=O)N[C@@H](CC(N)=O)C(=O)N[C@@H](CC(C)C)C(=O)N[C@@H](CC(C)C)C(=O)N[C@H](C(=O)N[C@@H](CCSC)C(=O)N[C@@H](CCSC)C(=O)N[C@@H](CO)C(=O)N[C@H](C(=O)N[C@@H](CO)C(=O)N[C@@H](CC(N)=O)C(=O)N[C@@H](CO)C(=O)N[C@@H](C)C(=O)N[C@@H](CCCCN)C(=O)N[C@@H](CC(=O)O)C(N)=O)[C@@H](C)O)[C@@H](C)O)C(C)C)[C@@H](C)O [CGEN-G6] (Ac-DLMETVNNLLTMMSTSNSAKD-NH2) | did not inhibit angiogenesis |  |
| CC[C@H](C)[C@H](NC(=O)[C@H](C)NC(=O)[C@H](CCCNC(=N)N)NC(=O)[C@H](CCC(=O)O)NC(=O)[C@H](CC(C)C)NC(=O)[C@H](CCCCN)NC(=O)[C@H](CCCCN)NC(=O)[C@H](CC(C)C)NC(=O)[C@H](Cc1c[nH]c2ccccc12)NC(=O)[C@H](CCC(N)=O)NC(=O)[C@@H](NC(=O)[C@H](CC(N)=O)NC(=O)[C@H](CC(N)=O)NC(=O)[C@H](CCC(N)=O)NC(=O)[C@H](CC(C)C)NC(=O)[C@H](C)NC(=O)[C@H](CCC(N)=O)NC(=O)[C@H](CCC(=O)O)NC(=O)[C@H](CC(C)C)NC(=O)[C@H](CCC(N)=O)NC(=O)[C@H](CCCCN)NC(=O)[C@@H](NC(=O)[C@H](CCC(N)=O)NC(=O)[C@H](CCC(N)=O)NC(=O)[C@@H](NC(C)=O)[C@@H](C)O)C(C)C)[C@@H](C)O)C(=O)N[C@@H](CCCCN)C(=O)N[C@H](C(=O)N[C@H](C(=O)N[C@@H](CC(C)C)C(N)=O)[C@@H](C)CC)[C@@H](C)O [CGEN-G2] (Ac-TQQVKQLEQALQNNTQWLKKLERAIKTIL-NH2) | did not inhibit angiogenesis |  |
| CC(=O)N[C@@H](CCC(=O)O)C(=O)N[C@H](C(=O)N[C@@H](Cc1ccccc1)C(=O)N[C@@H](CC(C)C)C(=O)N[C@@H](CO)C(=O)N[C@H](C(=O)N[C@@H](CC(N)=O)C(=O)N[C@@H](CCCCN)C(=O)N[C@@H](CC(C)C)C(=O)N[C@@H](CCC(=O)O)C(=O)N[C@@H](CC(N)=O)C(=O)N[C@@H](CCC(N)=O)C(N)=O)[C@@H](C)O)[C@@H](C)O [CGEN-A11, ETFLSTNKLENQ] (Ac-ETFLSTNKLENQ-NH2) |  | greatest effect |

— US9255132B2, “Angiopoietin derived peptides” (Compugen Ltd., priority 2008, dated 2016)
